Laboratory results as given in ChEMBL document CHEMBL1153701, “Synthesis and evaluation of antiallodynic and anticonvulsant activity of novel amide and urea derivatives of valproic acid analogues” (2009).
The source made the active and inactive calls. The rule behind the calls is not given here.

What was measured:
Format in all cases: functional, organism-based
[1] = system: Rattus norvegicus; test: Antiallodynic activity in rat assessed as protection against spinal nerve ligation-induced neuropathic pain at 80 mg/kg, ip after 240 mins; set-up: dose 80 mg/kg
[2] = system: Mus musculus; test: Antiepileptic activity in CF1 mouse assessed as inhibition of maximal electroshock-induced seizures at 30 mg/kg, ip after 0.5 hrs; set-up: dose 30 mg/kg
[3] = system: Mus musculus; test: Antiepileptic activity in CF1 mouse assessed as inhibition of maximal electroshock-induced seizures at 100 mg/kg, ip after 0.5 hrs; set-up: dose 100 mg/kg
[4] = system: Mus musculus; test: Antiepileptic activity in CF1 mouse assessed as inhibition of maximal electroshock-induced seizures at 300 mg/kg, ip after 0.5 hrs; set-up: dose 300 mg/kg
[5] = system: Mus musculus; test: Antiepileptic activity in CF1 mouse assessed as inhibition of maximal electroshock-induced seizures at 30 mg/kg, ip after 4 hrs; set-up: dose 30 mg/kg
[6] = system: Mus musculus; test: Antiepileptic activity in CF1 mouse assessed as inhibition of maximal electroshock-induced seizures at 100 mg/kg, ip after 4 hrs; set-up: dose 100 mg/kg
[7] = system: Mus musculus; test: Antiepileptic activity in CF1 mouse assessed as inhibition of maximal electroshock-induced seizures at 300 mg/kg, ip after 4 hrs; set-up: dose 300 mg/kg
[8] = system: Mus musculus; test: Antiepileptic activity in CF1 mouse assessed as inhibition of subcutaneous pentylenetetrazole-induced seizures at 30 mg/kg, ip after 0.5 hrs; set-up: dose 30 mg/kg
[9] = system: Mus musculus; test: Antiepileptic activity in CF1 mouse assessed as inhibition of subcutaneous pentylenetetrazole-induced seizures at 100 mg/kg, ip after 0.5 hrs; set-up: dose 100 mg/kg
[10] = system: Mus musculus; test: Antiepileptic activity in CF1 mouse assessed as inhibition of subcutaneous pentylenetetrazole-induced seizures at 300 mg/kg, ip after 0.5 hrs; set-up: dose 300 mg/kg
[11] = system: Mus musculus; test: Antiepileptic activity in CF1 mouse assessed as inhibition of subcutaneous pentylenetetrazole-induced seizures at 30 mg/kg, ip after 4 hrs; set-up: dose 30 mg/kg
[12] = system: Mus musculus; test: Antiepileptic activity in CF1 mouse assessed as inhibition of subcutaneous pentylenetetrazole-induced seizures at 100 mg/kg, ip after 4 hrs; set-up: dose 100 mg/kg
[13] = system: Mus musculus; test: Antiepileptic activity in CF1 mouse assessed as inhibition of subcutaneous pentylenetetrazole-induced seizures at 300 mg/kg, ip after 4 hrs; set-up: dose 300 mg/kg
[14] = system: Mus musculus; test: Neurotoxicity in CF1 mouse assessed as protection against motor impairment at 30 mg/kg, ip after 0.5 hrs by rotarod test; set-up: dose 30 mg/kg
[15] = system: Mus musculus; test: Neurotoxicity in CF1 mouse assessed as protection against motor impairment at 100 mg/kg, ip after 0.5 hrs by rotarod test; set-up: dose 100 mg/kg
[16] = system: Mus musculus; test: Neurotoxicity in CF1 mouse assessed as protection against motor impairment at 300 mg/kg, ip after 0.5 hrs by rotarod test; set-up: dose 300 mg/kg
[17] = system: Mus musculus; test: Neurotoxicity in CF1 mouse assessed as protection against motor impairment at 30 mg/kg, ip after 4 hrs by rotarod test; set-up: dose 30 mg/kg
[18] = system: Mus musculus; test: Neurotoxicity in CF1 mouse assessed as protection against motor impairment at 100 mg/kg, ip after 4 hrs by rotarod test; set-up: dose 100 mg/kg
[19] = system: Mus musculus; test: Neurotoxicity in CF1 mouse assessed as protection against motor impairment at 300 mg/kg, ip after 4 hrs by rotarod test; set-up: dose 300 mg/kg
[20] = system: Rattus norvegicus; test: Antiallodynic activity in rat assessed as protection against spinal nerve ligation-induced neuropathic pain at 80 mg/kg, ip after 30 mins; set-up: dose 80 mg/kg
[21] = system: Rattus norvegicus; test: Antiallodynic activity in rat assessed as protection against spinal nerve ligation-induced neuropathic pain at 80 mg/kg, ip after 60 mins; set-up: dose 80 mg/kg

SMILES	Activity [2]	Activity [3]	Activity [4]	Activity [5]	Activity [6]	Activity [7]	Activity [8]	Activity [9]	Activity [10]	Activity [11]	Activity [12]	Activity [13]	Activity [14]	Activity [15]	Activity [16]	Activity [17]	Activity [18]	Activity [19]	Activity [20]	further results
CCCC(CC(C)C)C(N)=O (centres undefined)	inactive	inactive	Active	inactive	inactive	inactive	inactive	inactive	Active	inactive	inactive	inactive	inactive	inactive	Active	inactive	inactive	inactive	–	Activity [1]: inactive
CC(C)(C)C(=O)NC(N)=O	–	–	–	–	–	–	–	–	–	–	–	–	–	–	–	–	–	–	inactive	Activity [1]: inactive
CCC(C)C(CC)C(=O)NC (centres undefined)	inactive	inactive	inactive	inactive	inactive	inactive	inactive	inactive	Active	inactive	inactive	inactive	inactive	–	–	inactive	inactive	inactive	inactive	–
CCCC(C(=O)NC)C(C)C (centres undefined)	inactive	inactive	inactive	inactive	inactive	inactive	inactive	inactive	Active	inactive	inactive	inactive	inactive	inactive	Active	inactive	inactive	inactive	inactive	–
CC(C)(C)C(N)=O	inactive	inactive	inactive	inactive	inactive	inactive	inactive	–	inactive	inactive	inactive	inactive	inactive	inactive	inactive	inactive	inactive	inactive	–	Activity [1]: inactive
CCCC(CCC)C(=O)NC(N)=O	inactive	Active	Active	inactive	inactive	Active	inactive	Active	Active	inactive	inactive	inactive	–	–	–	–	inactive	–	–	–
CNC(=O)C(C(C)C)C(C)C	inactive	inactive	Active	inactive	inactive	inactive	inactive	inactive	–	inactive	inactive	inactive	inactive	–	–	inactive	inactive	inactive	inactive	–
CCCC(CC)C(N)=O (centres undefined)	inactive	–	Active	inactive	inactive	Active	inactive	inactive	Active	inactive	inactive	inactive	inactive	inactive	–	inactive	inactive	inactive	–	–
CCC(CC(C)C)C(N)=O (centres undefined)	inactive	inactive	Active	inactive	inactive	inactive	inactive	inactive	–	inactive	inactive	Active	inactive	inactive	Active	inactive	inactive	inactive	inactive	–
CC(C)C(C(N)=O)C(C)(C)C (centres undefined)	inactive	–	Active	inactive	inactive	Active	inactive	Active	Active	inactive	inactive	Active	inactive	–	Active	inactive	inactive	Active	–	–
CC(C)C(C(=O)NC(N)=O)C(C)C	inactive	–	Active	inactive	inactive	Active	inactive	Active	Active	inactive	inactive	inactive	–	–	Active	inactive	inactive	Active	–	–
CCCCC(CC)C(=O)NC (centres undefined)	inactive	–	Active	inactive	inactive	Active	inactive	inactive	Active	inactive	inactive	inactive	inactive	inactive	Active	inactive	inactive	inactive	inactive	–
CCC(C(N)=O)C(C)C (centres undefined)	inactive	inactive	Active	inactive	inactive	inactive	inactive	inactive	inactive	inactive	inactive	inactive	inactive	inactive	–	inactive	inactive	inactive	–	–
CC(C)CC(C(N)=O)C(C)C (centres undefined)	inactive	inactive	inactive	inactive	inactive	inactive	inactive	inactive	Active	inactive	inactive	inactive	inactive	–	–	inactive	inactive	inactive	–	Activity [1]: inactive
CCC(CC)C(N)=O	inactive	–	Active	inactive	inactive	inactive	inactive	inactive	inactive	inactive	inactive	inactive	inactive	–	inactive	inactive	inactive	inactive	inactive	Activity [21]: inactive
